Experimental data reported in US9617251B2, “Indanylaminopyridylcyclopropanecarboxylic acids, pharmaceutical compositions and uses thereof” (BOEHRINGER INGELHEIM INTERNATIONAL GMBH, priority 2015, dated 2017).
Values after ≈ are worked out from the molar mass of the structure shown.

What was measured:
[1] = biological target: human GPR40 receptor (Homo sapiens, UniProt O14842); assay: IP1 accumulation measurements using the IPOne assay system (1321N1 cells stably expressing human GPR40 receptor); assay type: cell-based; settings: 1321N1 cells expressing human GPR40, 1 h stimulation at 37° C.
Procedure: IP1 accumulation measurements using the IPOne assay system—1321N1 cells stably expressing human GPR40 receptor (Euroscreen, Belgium) are seeded 24 h before the assay in white 384-well plates in culture medium containing 10% FCS, 1% Na-Pyruvate and 400 μg/mL G418. IP1 is assayed according to the manufacturer's description (Cisbio Bioassays, France). In brief, the assay is started by substitution of the culture medium by stimulation buffer (Hepes 10 mM, CaCl2 1 mM, MgCl2 0.5 mM, KCl 4.2 mM, NaCl 146 mM, glucose 5.5 mM and LiCl 50 mM, pH 7.4). Cells are stimulated for 1 h at 37° C., 5% CO2 by addition of the compounds that are diluted in stimulation buffer containing LiCl. Assays are stopped by adding HTRF-conjugates (IP1-d2 and Anti-IP1 cryptate Tb) and lysis buffer, provided by the manufacturer. After an incubation time of 1 h at room temperature plates are measured using an EnVision™, Perkin Elmer. The obtained fluorescence ratios at 665/615 […] are then used to calculate the pEC50 values using Assay Explorer 3.3 Software (Accelrys, Inc.) by interpolation using an IP1 reference curve and subsequent sigmoidal curve fitting allowing for a variable hill slope.

[2] = biological target: T1, cytochrome P450 2C8-isoenzyme (Homo sapiens, UniProt P10632); assay: Inhibition of CYP-2C8 (deethylation of amodiaquine, human liver microsomes); assay type: in vitro ADME; settings: CYP-2C8, human liver microsomes, amodiaquine 1 μM, 37° C.
T1 construct: from tissue; host or cells: human liver microsomes
T1 sequence (P10632 1-490): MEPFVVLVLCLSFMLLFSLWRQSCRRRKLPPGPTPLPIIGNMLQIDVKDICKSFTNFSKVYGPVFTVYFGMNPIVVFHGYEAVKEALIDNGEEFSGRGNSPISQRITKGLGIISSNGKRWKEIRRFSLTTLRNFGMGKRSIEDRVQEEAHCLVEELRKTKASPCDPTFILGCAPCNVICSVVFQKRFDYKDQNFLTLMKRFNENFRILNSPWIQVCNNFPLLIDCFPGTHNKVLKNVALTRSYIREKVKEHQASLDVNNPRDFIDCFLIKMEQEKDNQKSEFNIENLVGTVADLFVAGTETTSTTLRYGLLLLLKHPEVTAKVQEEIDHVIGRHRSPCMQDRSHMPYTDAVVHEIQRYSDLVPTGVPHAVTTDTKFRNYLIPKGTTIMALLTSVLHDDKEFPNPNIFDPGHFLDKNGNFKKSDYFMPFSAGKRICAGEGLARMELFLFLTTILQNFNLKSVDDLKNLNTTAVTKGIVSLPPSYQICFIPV
Procedure: The inhibition of cytochrome P450 2C8-isoenzyme catalyzed deethylation of amodiaquine by the test compound is assayed at 37° C. with human liver microsomes. All assays are carried out on a robotic system in 96 well plates. The final incubation volume contains TRIS buffer (0.1 M), MgCl2 (5 mM), human liver microsomes (0.05 mg/mL), amodiaquine (1 μM) and the test compound at five different concentrations or no compound (high control) in duplicate (e.g. highest concentration 10-50 μM with subsequent serial 1:4 dilutions). Following a short preincubation period, reactions are started with the cofactor (NADPH, 1 mM) and stopped by cooling the incubation down to 8° C. and subsequently by addition of one volume of acetonitrile. An internal standard solution—the stable isotope d5-desethylamodiaquine—is added after quenching of incubations. Peak area analyte (=metabolite formed) and internal standard is determined by LC-MS/MS. The resulting peak area ratio analyte to internal standard in these incubations is compared to a control activity containing no test compound. Within each of the assay runs, the IC50 of a positive control inhibitor (Montelukast) is determined. Experimental IC50 values are calculated by least square regression according to the following equation: % control activity=(100% control activity/(1+(I/IC50)S))−B with I=inhibitor concentration; S=slope factor; B=background activity (lower plateau of the inhibition curve)
(§1) If the inhibition of the reaction is already >50% at the lowest concentration of the test compound, the IC50 is assigned “<lowest concentration tested” (usually <0.4 μM). If the inhibition of the reaction is still <50% at the highest concentration of the test compound, the IC50 is assigned “>highest concentration tested” (usually >50 μM).

[3] = biological target: T2, cytochrome P450 2C9-isoenzyme (Homo sapiens, UniProt P11712); assay: Inhibition of CYP-2C9 (hydroxylation of diclofenac, human liver microsomes); assay type: in vitro ADME; settings: CYP-2C9, human liver microsomes, diclofenac 10 μM, 37° C.
T2 construct: from tissue; host or cells: human liver microsomes
Procedure: The inhibition of cytochrome P450 2C9-isoenzyme catalyzed hydroxylation of diclofenac by the test compound is assayed at 37° C. with human liver microsomes. All assays are carried out on a robotic system in 96 well plates. The final incubation volume contains TRIS buffer (0.1 M), MgCl2 (5 mM), human liver microsomes (0.1 mg/mL), diclofenac (10 μM) and the test compound at five different concentrations or no compound (high control) in duplicate (e.g., highest concentration 10-50 μM with subsequent serial 1:4 dilutions). Following a short preincubation period, reactions are started with the cofactor (NADPH, 1 mM) and stopped by cooling the incubation down to 8° C. and subsequently by addition of one volume of acetonitrile. An internal standard solution—the stable isotope ^13C6-hydroxydiclofenac—is added after quenching of incubations. Peak area analyte (=metabolite formed) and internal standard is determined by LC-MS/MS. The resulting peak area ratio analyte to internal standard in these incubations is compared to a control activity containing no test compound. Within each of the assay runs, the IC50 of a positive control inhibitor (sulfaphenazole) is determined. Experimental IC50 values are calculated by least square regression according to the following equation: % control activity=(100% control activity/(1+(I/IC50)S))−B with I=inhibitor concentration; S=slope factor; B=background activity (lower plateau of the inhibition curve)
as §1

[4] = Aqueous solubility in buffer vs acetonitrile/water (1/1), LC-UV; assay type: physicochemical; settings: kinetic from dmso stock, buffer pH 2.2, 24 h shaking, 2.5% DMSO
Procedure: The aqueous solubility of the compounds of the invention is determined by comparing the amount dissolved in buffer to the amount in an acetonitrile/water (1/1) solution. Starting from a 10 mM DMSO stock solution aliquots are diluted with acetonitrile/water (1/1) or buffer, respectively. After 24 h of shaking, the solutions are filtrated and analyzed by LC-UV. The amount dissolved in buffer is compared to the amount in the acetonitrile solution.
Solubility is usually being measured from 0.001 to 0.125 mg/mL at a DMSO concentration of 2.5%. If more than 90% of the compound is dissolved in buffer, the value is marked with “>”.

T2 sequence (P11712 whole entry): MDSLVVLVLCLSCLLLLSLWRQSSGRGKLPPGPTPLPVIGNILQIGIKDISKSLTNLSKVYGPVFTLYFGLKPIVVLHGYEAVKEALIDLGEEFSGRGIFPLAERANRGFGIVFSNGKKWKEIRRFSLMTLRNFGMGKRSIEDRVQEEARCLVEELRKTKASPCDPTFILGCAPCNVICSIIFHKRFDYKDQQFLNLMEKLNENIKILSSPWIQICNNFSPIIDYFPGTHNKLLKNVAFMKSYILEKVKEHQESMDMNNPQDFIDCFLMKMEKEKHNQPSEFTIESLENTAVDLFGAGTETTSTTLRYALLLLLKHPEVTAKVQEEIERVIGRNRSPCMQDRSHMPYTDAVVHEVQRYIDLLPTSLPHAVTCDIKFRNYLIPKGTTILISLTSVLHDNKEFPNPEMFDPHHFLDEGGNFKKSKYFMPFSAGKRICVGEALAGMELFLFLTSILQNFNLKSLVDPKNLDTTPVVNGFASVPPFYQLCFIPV
human GPR40 receptor, sequence (O14842 whole entry): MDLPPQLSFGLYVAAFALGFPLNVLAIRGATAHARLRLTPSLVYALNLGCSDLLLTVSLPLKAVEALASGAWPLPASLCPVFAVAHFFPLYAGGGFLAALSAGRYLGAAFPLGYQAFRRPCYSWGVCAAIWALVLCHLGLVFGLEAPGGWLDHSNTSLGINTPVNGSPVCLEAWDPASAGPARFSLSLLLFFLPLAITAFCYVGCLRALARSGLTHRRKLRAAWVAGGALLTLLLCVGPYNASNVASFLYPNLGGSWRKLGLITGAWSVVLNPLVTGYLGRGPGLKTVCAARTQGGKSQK

SMILES | EC50 [1] [nM] | IC50 [2] [nM] | IC50 [3] [nM] | solubility at 24 h [4] [µg/mL]
Cc1cc(OCC(=O)O)cc(C)c1-c1ccc(F)c2c1CC[C@H]2Nc1ccc([C@H]2C[C@@H]2C(=O)O)cn1 [Example 34] | 4130 | > 50000 | > 50000 | 73 (≈ 149 µM)
Cc1cc(OCC2CCOCC2)cc(C)c1-c1ccc(F)c2c1CC[C@H]2Nc1ccc([C@H]2C[C@@H]2C(=O)O)cn1 [Example 61] | 5 | 15000 | 33000 | 90 (≈ 170 µM)
Cc1cc(-c2ccc(=O)n(C)c2)cc(C)c1-c1ccc(F)c2c1CC[C@H]2Nc1ccc([C@H]2C[C@@H]2C(=O)O)cn1 [Example 37] | 11 | 17000 | > 50000 | 113 (≈ 216 µM)
Cc1cc(O[C@H]2CCOC2)cc(C)c1-c1ccc(F)c2c1CC[C@H]2Nc1ccc([C@H]2C[C@@H]2C(=O)O)cn1 [Example 13] | 27 | 49000 | > 50000 | 115 (≈ 229 µM)
O=C(O)[C@H]1C[C@@H]1c1ccc(N[C@@H]2CCc3c(-c4ccccc4C(F)(F)F)cccc32)nc1 [Example 85] | 91 | – | – | –
Cc1cc(-c2nnn(C)n2)cc(C)c1-c1cccc2c1CC[C@H]2Nc1ccc([C@@H]2C[C@H]2C(=O)O)cn1 [Example 9, (1R,2R)-2-(6-{(R)-4-[2,6-Dimethyl-4-(2-methyl-2H-tetrazol-5-yl)-phenyl]-indan-1-ylamino}-pyridin-3-yl)-cyclopropanecarboxylic acid] | 259 | – | – | –
Cc1cc(-c2nnn(C)n2)cc(C)c1-c1ccc(F)c2c1CC[C@H]2Nc1ccc(C2C[C@@H]2C(=O)O)cn1 (mixture of isomers) [Example 7, trans-2-(6-{(R)-4-[2,6-Dimethyl-4-(2-methyl-2H-tetrazol-5-yl)-phenyl]-7-fluoro-indan-1-ylamino}-pyridin-3-yl)-cyclopropanecarboxylic acid] | 19 | 38000 | > 50000 | –
Cc1cc(-c2cc(=O)n(C)cn2)cc(C)c1-c1cccc2c1CC[C@H]2Nc1ccc([C@H]2C[C@@H]2C(=O)O)cn1 [Example 83] | 8 | – | – | –
Cc1cc(OCCC(C)(C)O)cc(C)c1-c1ccc(F)c2c1CC[C@H]2Nc1ccc(C2C[C@@H]2C(=O)O)cn1 (mixture of isomers) [Example 8, trans-2-(6-{(R)-7-Fluoro-4-[4-(3-hydroxy-3-methyl-butoxy)-2,6-dimethyl-phenyl]-indan-1-ylamino}-pyridin-3-yl)-cyclopropanecarboxylic acid] | 16 | > 50000 | > 50000 | –
Cc1cc(OCC(C)(C)O)cc(C)c1-c1cccc2c1CC[C@H]2Nc1ccc([C@H]2C[C@@H]2C(=O)O)cn1 [Example 79] | 23 | – | – | –
Cc1cc(-c2nnn(C)n2)cc(C)c1-c1cccc2c1CC[C@H]2Nc1ccc(C2C[C@@H]2C(=O)O)cn1 (mixture of isomers) [Example 5, trans-2-(6-{(R)-4-[2,6-Dimethyl-4-(2-methyl-2H-tetrazol-5-yl)-phenyl]-indan-1-ylamino}-pyridin-3-yl)-cyclopropanecarboxylic acid] | 16 | 12000 | 48000 | –
Cc1cc(OCCC(C)(C)O)cc(C)c1-c1ccc(F)c2c1CC[C@H]2Nc1ccc([C@@H]2C[C@H]2C(=O)O)cn1 [Example 12, (1R,2R)-2-(6-{(R)-7-Fluoro-4-[4-(3-hydroxy-3-methyl-butoxy)-2,6-dimethyl-phenyl]-indan-1-ylamino}-pyridin-3-yl)-cyclopropanecarboxylic acid] | 568 | – | – | –
Cc1cc(OC2CCOCC2)cc(C)c1-c1ccc(F)c2c1CC[C@H]2Nc1ccc([C@H]2C[C@@H]2C(=O)O)cn1 [Example 15] | 18 | 26000 | > 50000 | –
Cc1cc(C(=O)N(C)C)cc(C)c1-c1cccc2c1CC[C@H]2Nc1ccc([C@H]2C[C@@H]2C(=O)O)cn1 [Example 86] | 174 | – | – | –
Cc1cc(OC2CCOCC2)cc(C)c1-c1cccc2c1CC[C@H]2Nc1ccc([C@H]2C[C@@H]2C(=O)O)cn1 [Example 77] | 20 | – | – | –
Cc1cc(OCCC(C)(C)O)cc(C)c1-c1cccc2c1CC[C@H]2Nc1ccc(C2C[C@@H]2C(=O)O)cn1 (mixture of isomers) [Example 6, trans-2-(6-{(R)-4-[4-(3-Hydroxy-3-methyl-butoxy)-2,6-dimethyl-phenyl]-indan-1-ylamino}-pyridin-3-yl)-cyclopropanecarboxylic acid] | 19 | > 50000 | > 50000 | –
Cc1cc(OCCC(C)(C)O)cc(C)c1-c1cccc2c1CC[C@H]2Nc1ccc([C@@H]2C[C@H]2C(=O)O)cn1 [Example 10, (1R,2R)-2-(6-{(R)-4-[4-(3-Hydroxy-3-methyl-butoxy)-2,6-dimethyl-phenyl]-indan-1-ylamino}-pyridin-3-yl)-cyclopropanecarboxylic acid] | 497 | – | – | –
Cc1cc(-c2ccn(C)c(=O)c2)cc(C)c1-c1cccc2c1CC[C@H]2Nc1ccc([C@H]2C[C@@H]2C(=O)O)cn1 [Example 81] | 8 | – | – | –
COc1cc(F)c(-c2cccc3c2CC[C@H]3Nc2ccc([C@H]3C[C@@H]3C(=O)O)cn2)c(F)c1 [Example 84] | 212 | – | – | –
Cc1cc(-c2ccc(=O)n(C)c2)cc(C)c1-c1cccc2c1CC[C@H]2Nc1ccc([C@H]2C[C@@H]2C(=O)O)cn1 [Example 82] | 18 | – | – | –
Cc1cc(C(=O)O)cc(C)c1-c1ccc(F)c2c1CC[C@H]2Nc1ccc([C@H]2C[C@@H]2C(=O)O)cn1 [Example 40] | 940 | > 50000 | > 50000 | –
Cc1cc(OCC2(O)CCS(=O)(=O)CC2)cc(C)c1-c1ccc(F)c2c1CC[C@H]2Nc1ccc([C@H]2C[C@@H]2C(=O)O)cn1 [Example 64] | 29 | > 50000 | > 50000 | –
Cc1cc(OCC(C)(C)C#N)cc(C)c1-c1cccc2c1CC[C@H]2Nc1ccc([C@H]2C[C@@H]2C(=O)O)cn1 [Example 80] | 22 | – | – | –
